Like-named read-outs stand apart in the source and are kept apart here.
Target: GAL4 DBD (1-147)-CfEcR(DEF)/VP16AD-βRXREF-LmUSPEF (Choristoneura fumiferana, UniProt O77240)
Test: cell-based
Conditions: for Fold Induction, 27-63 Assay, 3.3 uM: 3.3 uM ligand; for Fold Induction, 27-63 Assay, 3.3 uM / Fold Induction, 27-63 Assay, 33 uM: RLU ligand treated / RLU DMSO treated cells; for Fold Induction, 27-63 Assay, 33 uM: 33 uM ligand; for 27-63 assay Rel Max FI: maximum fold induction at any concentration relative to that of GS-E ligand, CHO 27-63 cells; for fold induction at 3.3 µM: read-out: Fold Induction, 27-63 Assay, 3.3 uM; for fold induction at 33 µM: read-out: Fold Induction, 27-63 Assay, 33 uM
[1] = read-out: 27-63 assay EC50, CHO 27-63 stable cell line, luciferase reporter, average of two wells

SMILES	Fold Induction, 27-63 Assay, 3.3 uM (average of two wells)	Fold Induction, 27-63 Assay, 33 uM (average of two wells)	27-63 assay Rel Max FI	EC50 [1] [nM]	EC50 [nM]	fold induction at 3.3 µM	fold induction at 33 µM
CC(O)c1ccc(C(=O)NN(C(=O)c2cc(F)cc(F)c2)C(C)(C)C)cc1 (stereo not shown) [RG-100342]	2	1287	0.674	17700	–	–	–
COc1cccc(C(=O)N(NC(=O)c2ccc3c(c2C)OCCO3)C(C)(C)C)c1 [RG-100360]	1627	1353	0.873	615	–	–	–
Cc1c(C(=O)NN(C(=O)c2ccc(F)cc2)C(C)(C)C)ccc2c1OCCO2 [RG-100425]	1156	1099	0.671	370	–	–	–
Cc1c(C(=O)NN(C(=O)c2ccc(F)cc2)C(C)(C)C)ccc2c1OCO2 [RG-100448]	66	847	0.609	5290	–	–	–
COc1ccccc1C(=O)N(NC(=O)c1ccc2c(c1)OCCO2)C(C)(C)C [RG-100492]	4	1378	0.916	11800	–	–	–
COc1cccc(C(=O)NN(C(=O)c2cc(C)cc(C)c2)C(C)(C)C)c1[N+](=O)[O-] [RG-100568]	615	2286	1.197	4130	–	–	–
COc1cccc(C(=O)NN(C(=O)c2cc(C)ccc2[N+](=O)[O-])C(C)(C)C)c1C [RG-100569]	884	841	0.720	287	–	–	–
CCc1c(C(=O)NN(C(=O)c2ccccc2OC)C(C)(C)C)ccc2c1OCCO2 [RG-100690]	1136	1047	0.727	200	–	–	–
CCc1c(C(=O)NN(C(=O)c2cccc(OC)c2)C(C)(C)C)ccc2c1OCCO2 [RG-100691]	1378	1209	0.863	330	–	–	–
COc1cccc(C(=O)NN(C(=O)c2cccc(C)c2)C(C)(C)C)c1C [RG-100694]	1057	1004	0.767	400	–	–	–
CCc1c(OC)cccc1C(=O)NN(C(=O)c1ccc2c(c1)OCO2)C(C)(C)C [RG-100699]	398	1413	0.939	3960	–	–	–
CCc1c(OC)cccc1C(=O)NN(C(=O)c1ccccc1OC)C(C)(C)C [RG-100725]	1096	1050	0.726	330	–	–	–
COc1ccc(OC)c(C(=O)N(NC(=O)c2cccc(C)c2C)C(C)(C)C)c1 [RG-100763]	107	1609	0.856	5300	–	–	–
COc1ccc(C)cc1C(=O)N(NC(=O)c1cccc(OC)c1C)C(C)(C)C [RG-100766]	931	1993	0.944	3420	–	–	–
COc1cc(C)cc(C(=O)N(NC(=O)c2cccc(OC)c2C)C(C)(C)C)c1 [RG-100767]	2097	2171	1.218	334	–	–	–
CCc1ccc(C(=O)NN(C(=O)c2cc(C)cc(C)c2)C(C)(C)C)cc1 [RG-102125]	–	–	0.721	–	190	–	–
CCOC(=O)C(C)(C)N(NC(=O)c1cccc(OC)c1CC)C(=O)c1cc(C)cc(C)c1 [RG-115025, 2-[N-(3,5-dimethyl-benzoyl)-N′-(2-ethyl-3-methoxy-benzoyl)-hydrazino]-2-methyl-propionic acid ethyl ester]	–	–	1.523	–	2450	2290	2240

SMILES	Fold Induction, 27-63 Assay, 3.3 uM (average of two wells)	Fold Induction, 27-63 Assay, 33 uM (average of two wells)	27-63 assay Rel Max FI	EC50 [1] [nM]	EC50 [nM]	fold induction at 3.3 µM	fold induction at 33 µM
CCc1c(OC)cccc1C(=O)NN(C(=O)c1c(F)cccc1F)C(C)(C)C [RG-115033]	2	1256	0.868	18100	–	–	–
CCc1c(OC)cccc1C(=O)NN(C(=O)c1cc(C)cc(C)c1)C(C)(C)C(=O)O [RG-115044, 2-[N-(3,5-Dimethyl-benzoyl)-N′-(2-ethyl-3-methoxy-benzoyl)-hydrazino]-2-methyl-propionic acid]	–	–	0.00	–	> 33000	1	2
CCc1c(C(=O)NN(C(=O)c2ccccc2)C(C)(C)C)ccc2c1OCOC2 [RG-115046]	18	1069	0.739	5660	–	–	–
COc1cc(C(=O)N(NC(=O)c2ccc3c(c2C)CCCO3)C(C)(C)C)cc(OC)c1C [RG-115055]	4499	2725	1.341	318	–	–	–
CCc1c(C(=O)NN(C(=O)c2ccccc2OC)C(C)(C)C)ccc2c1OCOC2 [RG-115065]	859	1095	0.746	3000	–	–	–
CCc1c(C(=O)NN(C(=O)c2ccc(Cl)cc2OC)C(C)(C)C)ccc2c1OCO2 [RG-115085]	1143	1149	0.683	807	–	–	–
COc1ccccc1C(=O)N(NC(=O)c1ccc2c(c1C)CCCO2)C(C)(C)C [RG-115102]	1154	971	0.667	491	–	–	–
Cc1c(C(=O)NN(C(=O)c2ccc(F)cc2)C(C)(C)C)ccc2c1CCCO2 [RG-115118]	1063	914	0.612	394	–	–	–
CCc1c(C(=O)NN(C(=O)c2cc(OC)c(C)c(OC)c2)C(C)(C)C)ccc2c1OCCO2 [RG-115130]	4436	4096	1.375	93	–	–	–
CCc1c(OC)cccc1C(=O)NN(C(=O)c1cc(C)cc(C)c1)C(C)(C)CO [RG-115143]	59	1736	1.112	7780	–	–	–
CCc1c(OC)cccc1C(=O)NN(C(=O)c1cc(C)ccc1[N+](=O)[O-])C(C)(C)C [RG-115162]	1814	1464	0.653	424	–	–	–
Cc1c(C(=O)NN(C(=O)c2cc(F)cc(F)c2)C(C)(C)C)ccc2c1CCCO2 [RG-115207]	1332	1279	0.704	593	–	–	–
CCc1c(OC)cccc1C(=O)NN(C(=O)c1cc(C)cc(COC(C)=O)c1)C(C)(C)C [RG-115223]	273	1935	1.167	4680	–	–	–
Cc1c(C(=O)NN(C(=O)c2cc(F)c(F)cc2F)C(C)(C)C)ccc2c1CCCO2 [RG-115229]	2829	1423	0.735	1150	–	–	–
CCc1c(C(=O)NN(C(=O)c2ccccc2OC)C(C)(C)C)ccc2c1OCCO2 [RG-115244]	2203	1847	0.785	169	–	–	–
CCc1c(OC)cccc1C(=O)NN(C(=O)c1cc(Cl)ccc1OC)C(C)(C)C [RG-115253]	848	910	0.742	107	–	–	–

From patent US9102648B1, “Bioavailable diacylhydrazine ligands for modulating the expression of exogenous genes via an ecdysone receptor complex” (Intrexon Corporation, priority 2003, dated 2015)
